# Source: US11066414B2, “Cot modulators and methods of use thereof” (Gilead Sciences, Inc., priority 2015, dated 2021)
# Read-outs that look alike come from different tables or passages of the source.
# Columns and labels:
# [1] = system: TNFα; experiment: Cot Monocyte TNFα Cell Based Assay
# [2] = biological target: Human Cot (Homo sapiens (Human), UniProt P41279); experiment: High Throughput Cot Biochemical Assay
# [3] = Homo sapiens, Monocyte, read-out: EC50 TNF, LPS-stimulated human monocytes, TNFα TR-FRET
# [4] = IC50 HTRF, Cot HTRF (TR-FRET KinEASE) biochemical assay, 400 μM ATP
# [5] = Homo sapiens, Monocyte, read-out: EC50 TNF, LPS-stimulated human monocytes, TNFα
# [6] = IC50 HTRF, Cot HTRF (TR-FRET) biochemical assay
# Chain of Human Cot (P41279 30-397): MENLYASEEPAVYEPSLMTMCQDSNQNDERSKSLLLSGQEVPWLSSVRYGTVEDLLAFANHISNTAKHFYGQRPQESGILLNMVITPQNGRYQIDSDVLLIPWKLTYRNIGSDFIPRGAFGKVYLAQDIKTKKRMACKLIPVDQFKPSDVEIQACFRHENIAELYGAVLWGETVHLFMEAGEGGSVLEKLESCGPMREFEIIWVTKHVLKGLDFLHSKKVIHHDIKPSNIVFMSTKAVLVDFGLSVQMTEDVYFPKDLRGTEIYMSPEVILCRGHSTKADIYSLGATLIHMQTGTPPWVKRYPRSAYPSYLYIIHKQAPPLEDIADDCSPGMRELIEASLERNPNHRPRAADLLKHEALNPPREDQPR
SMILES,"EC50 [1, 5]","IC50 [2, 6]",other results
"Cc1nc(F)ccc1[C@@H](c1cn(C2(C(F)(F)F)CC2)nn1)N(C)c1cc(Cl)c2ncc(C#N)c(NCC(C)(C)C)c2c1 [Example 979, (S)-8-chloro-6-(((6-fluoro-2-methylpyridin-3-yl)(1-(1-(trifluoromethyl)cyclopropyl)-1H-1,2,3-triazol-4-yl)methyl)(methyl)amino)-4-(neopentylamino)quinoline-3-carbonitrile]",–,–,"EC50 [1, 3]: 1000 nM; IC50 [2, 4]: 244 nM"
"CC(C)(C)CNc1c(C#N)cnc2c(Cl)cc(N[C@H](c3cn(C4(C)CC4)nn3)c3cccc4ncccc34)cc12 [Example 568, (S)-8-chloro-6-(((1-(1-methylcyclopropyl)-1H-1,2,3-triazol-4-yl)(quinolin-5-yl)methyl)amino)-4-(neopentylamino)-quinoline-3-carbonitrile]",170 nM,5 nM,–
"Cc1ncsc1[C@H](Nc1cc(Cl)c2ncc(C#N)c(NCC(C)(C)C)c2c1)c1cn(C2(C3CC3)CC2)nn1 [Example 702, (R)-6-(((1-([1,1′-bi(cyclopropan)]-1-yl)-1H-1,2,3-triazol-4-yl)(4-methylthiazol-5-yl)methyl)amino)-8-chloro-4-(neopentylamino)quinoline-3-carbonitrile]",188 nM,4 nM,–
"Cc1nc(F)ccc1[C@H](Nc1cc(C#N)c2ncc(C#N)c(NCC(C)(C)C)c2c1)c1cn(C2(C)COC2)nn1 [Example 852, (S)-6-(((6-fluoro-2-methylpyridin-3-yl)(1-(3-methyloxetan-3-yl)-1H-1,2,3-triazol-4-yl)methyl)amino)-4-(neopentylamino)quinoline-3,8-dicarbonitrile]",–,–,"EC50 [1, 3]: 58 nM; IC50 [2, 4]: 2 nM"
"N#CCC[C@@H](Nc1c(C#N)cnc2c(Cl)cc(N[C@H](c3cn(C4CC4)nn3)c3cccc4ncsc34)cc12)c1ccccc1 [Example 69, 6-(((S)-benzo[d]thiazol-7-yl(1-cyclopropyl-1H-1,2,3-triazol-4-yl)methyl)amino)-8-chloro-4-(((R)-3-cyano-1-phenylpropyl)amino)quinoline-3-carbonitrile]",33 nM,2 nM,–
"CC(C)(C)ONc1c(C#N)cnc2c(I)cc(N[C@H](c3cn(C4CC4)nn3)c3cccc4ncsc34)cc12 [Example 457, (S)-6-((benzo[d]thiazol-7-yl(1-cyclopropyl-1H-1,2,3-triazol-4-yl)methyl)amino)-4-(tert-butoxyamino)-8-iodoquinoline-3-carbonitrile]",1000 nM,315 nM,–
"Cc1ncccc1[C@H](Nc1cc(Cl)c2ncc(C#N)c(N[C@H](C)c3ccccc3)c2c1)c1cn(C2COC2)nn1 [Example 171, 8-chloro-6-(((S)-(2-methylpyridin-3-yl)(1-(oxetan-3-yl)-1H-1,2,3-triazol-4-yl)methyl)amino)-4-(((R)-1-phenylethyl)amino)quinoline-3-carbonitrile]",320 nM,10 nM,–
"Cc1nc(F)ccc1[C@H](Nc1cc(C#N)c2ncc(C#N)c(NCC(C)(C)C(F)(F)F)c2c1)c1nnn([C@@H](C)CF)c1F [Example 858, 6-(((S)-(5-fluoro-1-((S)-1-fluoropropan-2-yl)-1H-1,2,3-triazol-4-yl)(6-fluoro-2-methylpyridin-3-yl)methyl)amino)-4-((3,3,3-trifluoro-2,2-dimethylpropyl)amino)quinoline-3,8-dicarbonitrile]",–,–,"EC50 [1, 3]: 44 nM; IC50 [2, 4]: 7 nM"
"[2H][C@@](Nc1cc(Cl)c2ncc(C#N)c(NCC(C)(C)C)c2c1)(c1cn(C2CC2)nn1)c1cccnc1N(C)C [Example 650, (S)-8-chloro-6-(((1-cyclopropyl-1H-1,2,3-triazol-4-yl)(2-(dimethylamino)pyridin-3-yl)methyl-d)amino)-4-(neopentylamino)quinoline-3-carbonitrile]",1000 nM,179 nM,–
"[2H][C@](Nc1cc(C#N)c2ncc(C#N)c(NCC(C)(C)C)c2c1)(c1ccc(F)nc1)c1cn(C2CC2)nn1 [Example 116, (S)-6-(((1-cyclopropyl-1H-1,2,3-triazol-4-yl)(6-fluoropyridin-3-yl)methyl-d)amino)-4-(neopentylamino)quinoline-3,8-dicarbonitrile]",144 nM,3 nM,–
"[2H]c1c([C@@H](Nc2cc(Cl)c3ncc(C#N)c(NC([2H])([2H])C(C)(C)C)c3c2)c2ccc(F)nc2C)nnn1C1(C(F)F)CC1 [Example 973, (S)-8-chloro-6-(((1-(1-(difluoromethyl)cyclopropyl)-1H-1,2,3-triazol-4-yl-5-d)(6-fluoro-2-methylpyridin-3-yl)methyl)amino)-4-((2,2-dimethylpropyl-1,1-d2)amino)quinoline-3-carbonitrile]",–,–,"EC50 [1, 3]: 34 nM; IC50 [2, 4]: 3 nM"
"Cn1ccc2c([C@H](Nc3cc(C#N)c4ncc(C#N)c(NCC(C)(C)C)c4c3)c3cn(C4(CF)CC4)nn3)cccc2c1=O [Example 878, (S)-6-(((1-(1-(fluoromethyl)cyclopropyl)-1H-1,2,3-triazol-4-yl)(2-methyl-1-oxo-1,2-dihydroisoquinolin-5-yl)methyl)amino)-4-(neopentylamino)quinoline-3,8-dicarbonitrile]",–,–,"EC50 [1, 3]: 31 nM; IC50 [2, 4]: 2 nM"
"CC(C)(C)CNc1c(C#N)cnc2c(Cl)cc(N[C@H](c3cn(C4(C(F)(F)F)CC4)nn3)c3cccc4c(=O)n(CC(F)(F)F)ccc34)cc12 [Example 771, (S)-8-chloro-4-(neopentylamino)-6-(((1-oxo-2-(2,2,2-trifluoroethyl)-1,2-dihydroisoquinolin-5-yl)(1-(1-(trifluoromethyl)-cyclopropyl)-1H-1,2,3-triazol-4-yl)methyl)amino)quinoline-3-carbonitrile]",293 nM,4 nM,–
"CCC(F)(F)Cn1cc([C@@H](Nc2cc(Cl)c3ncc(C#N)c(NCC(C)(C)C)c3c2)c2ccc(F)nc2C)nn1 [Example 750, (S)-8-chloro-6-(((1-(2,2-ifluorobutyl)-1H-1,2,3-triazol-4-yl)(6-fluoro-2-methylpyridin-3-yl)methyl)amino)-4-(neopentylamino)quinoline-3-carbonitrile]",–,–,"EC50 ([1]; read-out: EC50 TNF, LPS-stimulated human monocytes, TNFα): 194 nM; IC50 ([2]; read-out: IC50 HTRF, Cot HTRF (TR-FRET) biochemical assay): 11 nM"
"Cc1nc(F)ccc1[C@H](Nc1cc(C#N)c2ncc(C#N)c(NCC(C)(C)C)c2c1)c1cn(C(C)(C)C(F)(F)F)nn1 [Example 591, (S)-6-(((6-fluoro-2-methylpyridin-3-yl)(1-(1,1,1-trifluoro-2-methylpropan-2-yl)-1H-1,2,3-triazol-4-yl)methyl)amino)-4-(neopentylamino)quinoline-3,8-dicarbonitrile]",106 nM,5 nM,–
"Cc1nc(F)ccc1[C@H](Nc1cc(C#N)c2ncc(C#N)c(NCC(C)(C)C)c2c1)c1cn(C2(C#N)CC2)nn1 [Example 489, (S)-6-(((1-(1-cyanocyclopropyl)-1H-1,2,3-triazol-4-yl)(6-fluoro-2-methylpyridin-3-yl)methyl)amino)-4-(neopentylamino)-quinoline-3,8-dicarbonitrile]",129 nM,2 nM,–
"Cc1nc([C@H](Nc2cc(Cl)c3ncc(C#N)c(Nc4ccc(F)c(Cl)c4)c3c2)c2cn(C3CCN(C(C)(C)C)CC3)nn2)c(C)o1 [Example 262, (S)-6-(((1-(1-(tert-butyl)piperidin-4-yl)-1H-1,2,3-triazol-4-yl)(2,5-dimethyloxazol-4-yl)methyl)amino)-8-chloro-4-((3-chloro-4-fluorophenyl)amino)quinoline-3-carbonitrile]",130 nM,11 nM,–
"CC(C)(C)CNc1c(C#N)cnc2c(C#N)cc(N[C@H](c3cn(C4CC4)nn3)c3csc4c3CCN(C3COC3)C4)cc12 [Example 433, (S)-6-(((1-cyclopropyl-1H-1,2,3-triazol-4-yl)(6-(oxetan-3-yl)-4,5,6,7-tetrahydrothieno[2,3-c]pyridin-3-yl)methyl)amino)-4-(neopentylamino)-quinoline-3,8-dicarbonitrile]",65 nM,1 nM,–
"[2H]C([2H])([2H])n1ccc2c([C@H](Nc3cc(Cl)c4ncc(C#N)c(NCC(C)(C)C)c4c3)c3cn(C45CC(C4)C5)nn3)cccc2c1=O [Example 711, (S)-6-(((1-(bicyclo[1.1.1]pentan-1-yl)-1H-1,2,3-triazol-4-yl)(2-(methyl-d3)-1-oxo-1,2-dihydroisoquinolin-5-yl)methyl)amino)-8-chloro-4-(neopentylamino)quinoline-3-carbonitrile]",32 nM,2 nM,–
"Cn1ccc2c([C@H](Nc3cc(Cl)c4ncc(C#N)c(NCC(C)(C)C)c4c3)c3cn(C(C)(C)C)nn3)cccc2c1=O [Example 747, (S)-6-(((1-(tert-butyl)-1H-1,2,3-triazol-4-yl)(2-methyl-1-oxo-1,2-dihydroisoquinolin-5-yl)methyl)amino)-8-chloro-4-(neopentylamino)quinoline-3-carbonitrile]",36 nM,4 nM,–
"CCn1ccc2c([C@H](Nc3cc(Cl)c4ncc(C#N)c(NCC(C)(C)C)c4c3)c3cn(C4(C)CC4)nn3)cccc2c1=O [Example 773, (S)-8-chloro-6-(((2-ethyl-1-oxo-1,2-dihydroisoquinolin-5-yl)(1-(1-methylcyclopropyl)-1H-1,2,3-triazol-4-yl)methyl)amino)-4-(neopentylamino)quinoline-3-carbonitrile]",35 nM,2 nM,–
"Cn1ccc2c([C@H](Nc3cc(Cl)c4ncc(C#N)c(NCC(C)(C)C)c4c3)c3cn(C4(C(F)F)CC4)nn3)cccc2c1=O [Example 744, (S)-8-chloro-6-(((1-(1-(difluoromethyl)cyclopropyl)-1H-1,2,3-triazol-4-yl)(2-methyl-1-oxo-1,2-dihydroisoquinolin-5-yl)methyl)amino)-4-(neopentylamino)quinoline-3-carbonitrile]",33 nM,3 nM,–
